Measurements from US20210045385A1, “PYRIDAZINONE-SUBSTITUTED KETOXIMES AS HERBICIDES” (FMC Corporation, priority 2018, published 2021).

Experiments:
Assay type in all cases: in vivo
[1] = test system: sedge umbrella (small-flower umbrella sedge, Cyperus difformis); assay: Test D flooded paddy test, visual plant response rating; details: 250 g ai/ha, scale 0 to 100 (0 no effect, 100 complete control), 13 to 15 d
Outline: (§1)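 Visual injury scores, 0 (no effect) to 100 (complete control), were assigned after 13 to 15 d in the greenhouse by comparison with controls. Test compounds had been added to paddy water covering soil by 3 cm at the 2-leaf stage.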

[2] = test system: duck salad (Heteranthera limosa); assay: as above; details: 250 g ai/ha, scale 0 to 100 (0 no effect, 100 complete control), 13 to 15 d
Outline: as §1

rice (Oryza sativa) = assay: as above; details: 250 g ai/ha, scale 0 to 100 (0 no effect, 100 complete control), 13 to 15 d
Outline: as §1

[3] = test system: barnyardgrass (Echinochloa crus-galli); assay: as above; details: 250 g ai/ha, scale 0 to 100 (0 no effect, 100 complete control), 13 to 15 d
Outline: as §1

[4] = test system: Italian ryegrass (Lolium mutiflorum); assay: Test C preemergence, visual plant response rating; details: Test C, 0 is no effect, 100 is complete control
Outline: (§2)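 Visual injury on a 0 (no effect) to 100 (complete control) scale versus untreated controls, scored approximately 10 d after treatment under greenhouse conditions. Treatments used surfactant-containing non-phytotoxic solvent formulations, sprayed onto loam–sand soil preemergence or onto one- to two-leaf plants 2–10 cm tall postemergence.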

[5] = test system: pigweed (Amaranthus retroflexus); assay: Test C preemergence, visual plant response rating; details: Test C, 0 is no effect, 100 is complete control
Outline: as §2

[6] = test system: barnyardgrass (Echinochloa crus-galli); assay: Test C preemergence, visual plant response rating; details: Test C, 0 is no effect, 100 is complete control
Outline: as §2

kochia (Bassia scoparia) [7] = assay: Test C preemergence, visual plant response rating; details: Test C, 0 is no effect, 100 is complete control
Outline: as §2

[8] = test system: foxtail, giant (giant foxtail, Setaria faberi); assay: Test C preemergence, visual plant response rating; details: Test C, 0 is no effect, 100 is complete control
Outline: as §2

[9] = test system: ragweed (common ragweed, Ambrosia artemisiifolia); assay: Test C preemergence, visual plant response rating; details: Test C, 0 is no effect, 100 is complete control
Outline: as §2

[10] = test system: wheat (Triticum aestivum); assay: Test C postemergence, visual plant response rating
Outline: as §2

[11] = test system: blackgrass (Alopecurus myosuroides); assay: Test C postemergence, visual plant response rating
Outline: as §2

corn (Zea mays) = assay: Test C postemergence, visual plant response rating
Outline: as §2

[12] = test system: galium (catchweed bedstraw, Galium aparine); assay: Test C postemergence, visual plant response rating
Outline: as §2

[13] = test system: Italian ryegrass (Lolium mutiflorum); assay: Test C postemergence, visual plant response rating
Outline: as §2

[14] = test system: pigweed (Amaranthus retroflexus); assay: Test C postemergence, visual plant response rating
Outline: as §2

[15] = test system: barnyardgrass (Echinochloa crus-galli); assay: Test C postemergence, visual plant response rating
Outline: as §2

kochia (Bassia scoparia) [16] = assay: Test C postemergence, visual plant response rating
Outline: as §2

[17] = test system: foxtail, giant (giant foxtail, Setaria faberi); assay: Test C postemergence, visual plant response rating
Outline: as §2

[18] = test system: ragweed (common ragweed, Ambrosia artemisiifolia); assay: Test C postemergence, visual plant response rating
Outline: as §2

[19] = Test C, postemergence, 125 g ai/ha

C#CCON=C(c1cccc(OC(F)F)c1)c1c(O)c(C)nn(C)c1=O [Compound 201]
Plant response rating, Sedge, Umbrella (Flood) [1]: 0 | Plant response rating, Ducksalad (Flood) [2]: 0 | Plant response rating, Rice (Flood) (rice (Oryza sativa)): 0 | Plant response rating, Barnyardgrass (Flood) [3]: 0 | Ryegrass, Italian plant response rating (0 to 100 scale) ([4]; 31 g ai/ha): 10 | Ryegrass, Italian plant response rating (0 to 100 scale) ([4]; 125 g ai/ha): 80 | Pigweed plant response rating (0 to 100 scale) ([5]; 31 g ai/ha): 0 | Pigweed plant response rating (0 to 100 scale) ([5]; 125 g ai/ha): 0 | Barnyardgrass plant response rating (0 to 100 scale) ([6]; 31 g ai/ha): 0 | Barnyardgrass plant response rating (0 to 100 scale) ([6]; 125 g ai/ha): 10 | Kochia plant response rating (0 to 100 scale) (kochia (Bassia scoparia) [7]; 31 g ai/ha): 0 | Kochia plant response rating (0 to 100 scale) (kochia (Bassia scoparia) [7]; 125 g ai/ha): 0 | Foxtail, Giant plant response rating (0 to 100 scale) ([8]; 31 g ai/ha): 10 | Foxtail, Giant plant response rating (0 to 100 scale) ([8]; 125 g ai/ha): 30 | Ragweed plant response rating (0 to 100 scale) ([9]; 31 g ai/ha): 0 | Ragweed plant response rating (0 to 100 scale) ([9]; 125 g ai/ha): 20 | Wheat plant response rating (0 to 100 scale) ([10]; Postemergence, 31 g ai/ha): 0 | Wheat plant response rating (0 to 100 scale) [10, 19]: 40 | Blackgrass plant response rating (0 to 100 scale) ([11]; Postemergence, 31 g ai/ha): 10 | Blackgrass plant response rating (0 to 100 scale) [11, 19]: 50 | Corn plant response rating (0 to 100 scale) (corn (Zea mays); Postemergence, 31 g ai/ha): 0 | Corn plant response rating (0 to 100 scale) (corn (Zea mays); [19]): 0 | Galium plant response rating (0 to 100 scale) ([12]; Postemergence, 31 g ai/ha): 50 | Galium plant response rating (0 to 100 scale) [12, 19]: 80 | Ryegrass, Italian plant response rating (0 to 100 scale) ([13]; Postemergence, 31 g ai/ha): 30 | Ryegrass, Italian plant response rating (0 to 100 scale) [13, 19]: 60 | Pigweed plant response rating (0 to 100 scale) ([14]; Postemergence, 31 g ai/ha): 20 | Pigweed plant response rating (0 to 100 scale) [14, 19]: 70 | Barnyardgrass plant response rating (0 to 100 scale) ([15]; Postemergence, 31 g ai/ha): 10 | Barnyardgrass plant response rating (0 to 100 scale) [15, 19]: 40 | Kochia plant response rating (0 to 100 scale) (kochia (Bassia scoparia) [16]; Postemergence, 31 g ai/ha): 40 | Kochia plant response rating (0 to 100 scale) (kochia (Bassia scoparia) [16]; [19]): 70 | Foxtail, Giant plant response rating (0 to 100 scale) ([17]; Postemergence, 31 g ai/ha): 20 | Foxtail, Giant plant response rating (0 to 100 scale) [17, 19]: 40 | Ragweed plant response rating (0 to 100 scale) ([18]; Postemergence, 31 g ai/ha): 10 | Ragweed plant response rating (0 to 100 scale) [18, 19]: 30

CON=C(c1cccc(OC(F)F)c1)c1c(O)c(C)nn(C)c1=O [Compound 202]
Plant response rating, Sedge, Umbrella (Flood) [1]: 0 | Plant response rating, Ducksalad (Flood) [2]: 0 | Plant response rating, Rice (Flood) (rice (Oryza sativa)): 0 | Plant response rating, Barnyardgrass (Flood) [3]: 0 | Ryegrass, Italian plant response rating (0 to 100 scale) ([4]; 31 g ai/ha): 0 | Ryegrass, Italian plant response rating (0 to 100 scale) ([4]; 125 g ai/ha): 10 | Pigweed plant response rating (0 to 100 scale) ([5]; 31 g ai/ha): 0 | Pigweed plant response rating (0 to 100 scale) ([5]; 125 g ai/ha): 0 | Barnyardgrass plant response rating (0 to 100 scale) ([6]; 31 g ai/ha): 0 | Barnyardgrass plant response rating (0 to 100 scale) ([6]; 125 g ai/ha): 0 | Kochia plant response rating (0 to 100 scale) (kochia (Bassia scoparia) [7]; 31 g ai/ha): 0 | Kochia plant response rating (0 to 100 scale) (kochia (Bassia scoparia) [7]; 125 g ai/ha): 0 | Foxtail, Giant plant response rating (0 to 100 scale) ([8]; 31 g ai/ha): 0 | Foxtail, Giant plant response rating (0 to 100 scale) ([8]; 125 g ai/ha): 0 | Ragweed plant response rating (0 to 100 scale) ([9]; 31 g ai/ha): 0 | Ragweed plant response rating (0 to 100 scale) ([9]; 125 g ai/ha): 10 | Wheat plant response rating (0 to 100 scale) ([10]; Postemergence, 31 g ai/ha): 0 | Wheat plant response rating (0 to 100 scale) [10, 19]: 0 | Blackgrass plant response rating (0 to 100 scale) ([11]; Postemergence, 31 g ai/ha): 0 | Blackgrass plant response rating (0 to 100 scale) [11, 19]: 0 | Corn plant response rating (0 to 100 scale) (corn (Zea mays); Postemergence, 31 g ai/ha): 0 | Corn plant response rating (0 to 100 scale) (corn (Zea mays); [19]): 0 | Galium plant response rating (0 to 100 scale) ([12]; Postemergence, 31 g ai/ha): 40 | Galium plant response rating (0 to 100 scale) [12, 19]: 70 | Ryegrass, Italian plant response rating (0 to 100 scale) ([13]; Postemergence, 31 g ai/ha): 10 | Ryegrass, Italian plant response rating (0 to 100 scale) [13, 19]: 30 | Pigweed plant response rating (0 to 100 scale) ([14]; Postemergence, 31 g ai/ha): 20 | Pigweed plant response rating (0 to 100 scale) [14, 19]: 60 | Barnyardgrass plant response rating (0 to 100 scale) ([15]; Postemergence, 31 g ai/ha): 0 | Barnyardgrass plant response rating (0 to 100 scale) [15, 19]: 10 | Kochia plant response rating (0 to 100 scale) (kochia (Bassia scoparia) [16]; Postemergence, 31 g ai/ha): 10 | Kochia plant response rating (0 to 100 scale) (kochia (Bassia scoparia) [16]; [19]): 40 | Foxtail, Giant plant response rating (0 to 100 scale) ([17]; Postemergence, 31 g ai/ha): 0 | Foxtail, Giant plant response rating (0 to 100 scale) [17, 19]: 0 | Ragweed plant response rating (0 to 100 scale) ([18]; Postemergence, 31 g ai/ha): 0 | Ragweed plant response rating (0 to 100 scale) [18, 19]: 20
